Measurements from patent US20070179181A1, “Treatment of inflammatory disorders and pain using beta-aminoalcohols” (priority 2004, published 2007).

Columns and labels:
alpha1 adrenoceptor = assay: Alpha1 adrenoceptor binding affinity (3H-prazosin, rat brain homogenate); design: species or system Wistar rats; conditions: radioligand 3H-prazosin 0.25 nM
Protocol: (§1) Adrenoceptor Binding Affinity Brains from Wistar rats were homogenised and incubated with test article (over a concentration range) and the radioligand 3H-prazosin (0.25 nM) for 30 minutes at 25° C., in a 50 mM Tris-HCl, 0.1% ascorbic acid, 10 μM pargyline incubation buffer. After washing, binding was measured by scintillation counting. LPS Mouse Assay

[1] = tested on: rat adjuvant model of arthritis; assay: Rat adjuvant assay (model of arthritis); format: in vivo, Wistar rats
Protocol: Rat Adjuvant Assay Male Wistar rats (180 to 200 g) were inoculated by subplantar injection of freund's adjuvant (suspension of Mycobacterium butyricum in mineral oil) into the right paw at day 0. Sham inoculations were injected in the same way with 0.9% saline in matched Male Wistar rats. On day 2 animals were weighed. On days 3, 4, 7, 9 and 11 animals were weighed and both their right and left hind paws were measure by plethsymometry by submerging the paw up to the tibiotarsal joint. On day 11, rats with left hind paw volumes increased by 20% were selected for continuance in the study. On the same day continuance rats were administered test article orally (10 ml/kg in distilled water) and from then on once a day until the completion of the study. Left and right hind paw volumes were measured on days 11, 14, 15, 16, 18 and 21.

TNFα = assay: LPS mouse assay, serum TNFα; format: in vivo, Balb C ByJ mice; conditions: LPS-challenged mouse
Protocol: as §1, with “Brains” for “Adrenoceptor Binding Affinity Brains”
7 week old Balb C ByJ mice (24-28 g) were administered, either by i.p. (5 ml/kg) or oral (10 ml/kg) administration, with vehicle or test article. 30 minutes later these animals were challenged with an intraperitoneal injection of 1 mg/kg LPS. 2 hours after LPS challenge blood samples were collected under light isoflurane anaesthesia into normal tubes by retro-orbital puncture. Samples were allowed to clot at room temperature and then spun at 6000 g for 3 min at 4° C. Serum was stored at −20° C. until use. Serum TNFa and IL-10 levels were analysed in duplicate by ELISA technique.

| SMILES | Alpha1 affinity (alpha1 adrenoceptor) [nM] | also measured |
| --- | --- | --- |
| CC(C(O)c1ccc(O)cc1)N1CCC(Cc2ccccc2)CC1 (stereo not drawn) [erythro (+), Ifenprodil] | 63 |  |
| CC(C(O)c1ccc(O)cc1)N1CCC(Cc2ccccc2)CC1 (stereo not drawn) [erythro (−), Ifenprodil] | 482 |  |
| CC(CCc1ccccc1)NCC(O)c1ccc(O)c(C(N)=O)c1 (stereo not shown) [labetalol] |  | efficacy in rat adjuvant model of arthritis ([1]; 30 mg/kg): Pronounced (and similar) efficacy; efficacy in rat adjuvant model of arthritis ([1]; 100 mg/kg): Pronounced (and similar) efficacy |
| CC(NCCc1ccc(O)cc1)C(O)c1ccc(O)cc1 (stereo not shown) [ritodrine] |  | LPS-induced systemic TNFα release in mouse blood (TNFα): cytokine modulatory activity |
| CC(C(O)c1ccc(O)cc1)N1CCC(Cc2ccccc2)CC1 (stereo not drawn) [threo (+), Ifenprodil] | 2160 |  |
| CC(C(O)c1ccc(O)cc1)N1CCC(Cc2ccccc2)CC1 (stereo not drawn) [threo (−), Ifenprodil] | 439 |  |
